This test deals with endothelial cells induced by VEGF. Nature of the test: In vitro proliferation of endothelial cells induced by VEGF (HUV-EC-C assay). The format is cell-based, human. As to the method: The following protocol may also be used to measure a compound's activity against PDGF-R, FGF-R, VEGF, aFGF or Flk-1/KDR, all of which are naturally expressed by HUV-EC cells.
1. Wash and trypsinize HUV-EC-C cells (human umbilical vein endothelial cells, (American Type Culture Collection; catalogue no. 1730 CRL). Wash with Dulbecco's phosphate-buffered saline (D-PBS; obtained from Gibco BRL; catalogue no. 14190-029) 2 times at about 1 ml/10 cm^2 of tissue culture flask. Trypsinize with 0.05% trypsin-EDTA in non-enzymatic cell dissociation solution (Sigma Chemical Company; catalogue no. C-1544). The 0.05% trypsin is made by diluting 0.25% trypsin/1 mM EDTA (Gibco; catalogue no. 25200-049) in the cell dissociation solution. Trypsinize with about 1 ml/25-30 cm^2 of tissue culture flask for about 5 minutes at 37° C. After cells have detached from the flask, add an equal volume of assay medium and transfer to a 50 ml sterile centrifuge tube (Fisher Scientific; catalogue no. 05-539-6).
2. Wash the cells with about 35 ml assay medium in the 50 ml sterile centrifuge tube by adding the assay medium, centrifuge for 10 minutes at approximately 200×g, aspirate the supernatant, and resuspend with 35 ml D-PBS. Repeat the wash two more times with D-PBS, resuspend the cells in about 1 ml assay medium/15 cm^2 of tissue culture flask. […]

Take `Cc1cc(C)c(/C=C2\C(=O)Nc3ccccc32)[nH]1` [3-[(2,4-dimethylpyrrol-5-yl)methylidenyl]-2-indolinone]: for the setting “Homo sapiens, Endothelial cell, read-out: IC50, inhibition of in vitro proliferation of endothelial cells induced by VEGF”, the IC50 was roughly 70 nM. Moreover, the “exposure to drug after which detectable activity is first observed” value (time-dependent increase in potency) came out at 5 min.

The values are drawn from patent US20030073837A1, “3-HETEROARYLIDENYL-2-INDOLINONE COMPOUNDS FOR MODULATING PROTEIN KINASE ACTIVITY AND FOR USE IN CANCER CHEMOTHERAPY” (priority 1998, published 2003).
